According to article PMC6691587, “New CXCR1/CXCR2 inhibitors represent an effective treatment for kidney or head and neck cancers sensitive or refractory to reference treatments” (Theranostics, 2019):
Like-named read-outs stand apart in the source and are kept apart here.

Columns and labels:
[1] = tested on: ERK/MAP Kinase signaling pathway; test: p-ERK immunoblotting in HuVEC; assay type: cell-based, human; conditions: 5 µM C29 1 h, CXCL5 50 ng/ml 10 min
Procedure: (§1) Cells were lysed in buffer containing 3% SDS, 10% glycerol and 0.825 mM Na2HPO4. 30 to 50 μg of proteins separated on 10% SDS-PAGE, transferred onto a PVDF membrane and then exposed to the appropriate antibodies. Proteins were visualized with the ECL system using horseradish peroxidase-conjugated anti-rabbit or anti-mouse antibodies.

[2] = tested on: K562; test: XTT cell viability assay, K562 CML cells; assay type: cell-based, human; conditions: Homo sapiens, K562, 48 h, SD 10%, mean of three experiments
Procedure: (§2) Fifty microliters of sodium 3′-[1-phenylaminocarbonyl)-3,4-tetrazolium]-bis(4-methoxy-6-nitro) benzene sulfonic acid hydrate (XTT) reagent was added to each well. The assay is based on the cleavage of the yellow tetrazolium salt XTT to form an orange formazan dye by metabolically active cells. This bio-reduction occurs in viable cells only and is related to NAD(P)H production through glycolysis. Therefore, the amount of formazan dye measured at 490 nm directly correlated with the number of metabolically active cells reflecting cell proliferation and viability. Each assay was performed in quadruplicate.

[3] = tested on: CAL33; test: XTT cell viability assay, CAL33 HNSCC cells; assay type: cell-based, human; conditions: for IC50: Homo sapiens, CAL-33
Procedure: as §2

[4] = tested on: primary kidney tumor cells (CC); test: Cell viability, primary kidney tumor cells CC; assay type: cell-based
Procedure: as §2
(§3) For the experiments with C29, we confirmed all the results by evaluating the cell viability. Cell viability and cell death was assessed using the ADAM-MC apparatus (NanoEnTek, Guro-gu, Seoul, Korea) based on fluorescent propidium iodide staining according to the manufacturer's instructions.
(§4) To determine the selectivity of the activity of the substances tested, the selectivity index (SI) was calculated according to the equation previously described where SI = IC50 of a compound in a normal cell line/IC50 of the same compound in cancer cell line. The IC50 is the concentration required to kill 50% of the cell population.

[5] = tested on: 786-O cells; test: Ectopic model of RCC (786-O xenograft); assay type: in vivo, nude (nu/nu) female mice; conditions: C29 100 µg i.p. three per week; danirixin 200 µg three times a week; sunitinib 50 mg/kg oral gavage five times a week
Procedure: These studies were carried out in strict accordance with the recommendations in the Guide for the Care and Use of Laboratory Animals. Our experiments were approved by the ''Comité National Institutionnel d'Ethique pour l'Animal de Laboratoire'' (reference: PEA-255 and PEA-277). Cells were injected subcutaneously into the flank of 5-week-old nude (nu/nu) female mice (Janvier). When the tumor reached 100 mm^3, mice were treated. The tumor volume was determined with a caliper (v = L*l2*0.5).
2- Seven million 786-O cells were injected subcutaneously.

[6] = tested on: SKM1; test: XTT cell viability assay, SKM1 MDS cells; assay type: cell-based, human; conditions: Homo sapiens, SKM-1, 48 h, SD 10%, mean of three experiments, read-out: IC50 SK (MDS)
Procedure: as §2

[7] = tested on: Molm14; test: XTT cell viability assay, Molm14 AML cells; assay type: cell-based, human; conditions: Homo sapiens, MOLM-14, 48 h, SD 10%, mean of three experiments
Procedure: as §2

[8] = tested on: ERK/MAP Kinase and PI3K/AKT signaling pathways; test: p-ERK and p-AKT immunoblotting in RCC and HNSCC cells; assay type: cell-based, human; conditions: naive and resistant RCC and HNSCC cells, 2.5 µM, 1 h to 48 h
Procedure: as §1

[9] = tested on: RCC4; test: XTT cell viability assay, RCC4 RCC cells; assay type: cell-based, human; conditions: Homo sapiens, RCC4, 48 h, SD 10%, mean of three experiments, read-out: IC50 R4 (Kidney RCC)
Procedure: as §2

[10] = tested on: HuVEC; test: XTT cell viability assay, HuVEC; assay type: cell-based, human; conditions: 48 h, CXCL5 or CXCL7 100 ng/ml
Procedure: as §2

[11] = tested on: panel of human tumor cell lines; test: XTT screening on a panel of tumor cell lines; assay type: cell-based; conditions: Homo sapiens; read-out: IC50 values for several cancer cell lines
Procedure: as §2

[12] = tested on: TF and CC cells; test: FACS analysis of apoptotic markers, primary tumor cells; assay type: cell-based; conditions: C29 at 1 µmol/L
Procedure: (§5) Apoptosis analysis: After stimulation, cells were washed with ice-cold PBS and were stained with the annexin-V-fluo staining kit (Roche, Meylan, France) according to the manufacturer's procedure. Fluorescence was measured using the FL2 (AV) and FL3 (propidium iodide, PI) channels of a fluorescence-activated cell sorter apparatus (Calibur cytometer).

[13] = tested on: Molm13; test: XTT cell viability assay, Molm13 AML cells; assay type: cell-based, human; conditions: Homo sapiens, MOLM-13, 48 h, SD 10%, mean of three experiments
Procedure: as §2

[14] = tested on: 786, 786R, CAL27 and CAL27R cells; test: Apoptosis analysis (annexin-V/PI flow cytometry); assay type: cell-based, human; conditions: sensitive and resistant cells, 2.5 µM, 48 h
Procedure: as §5

[15] = tested on: MDA-MD-231; test: XTT cell viability assay, breast cancer cells; assay type: cell-based, human; conditions: Homo sapiens, 48 h, SD 10%, mean of three experiments
Procedure: as §2

[16] = Hematological, renal and hepatic toxicity; assay type: in vivo
[17] = tested on: caspase 3; test: Caspase 3 activity assay; assay type: cell-based, human; conditions: 786, 786R, CAL27, CAL27R; 2.5 and 5 µM, 48 h
Procedure: Caspase assays have already been described. Briefly, the caspase 3 activity was assessed in quadruplicate using z-DEVD-AMC as substrate and the fluorescence were assessed.

[18] = tested on: uveal melanoma cells (Mel202); test: Cell viability, uveal melanoma cells; assay type: cell-based
Procedure: as §2, §4

[19] = tested on: primary kidney tumor cells (TF); test: Cell viability, primary kidney tumor cells TF; assay type: cell-based
Procedure: as §2, §3, §4

[20] = C29 100mg/kg oral gavage, three weeks, ns vs CT

With `O=C(Nc1cccc(Cl)c1)Nc1nc2ccc([N+](=O)[O-])cc2s1` [C29] the “basal and CXCL5-dependent ERK/MAP Kinase signaling (p-ERK)” value [1] was “inhibition”, the IC50 [2] was 2000 nM and the IC50 ([3]; CXCR1+/CXCR2+, read-out: IC50 CAL33) was 4 µM. The IC50 ([3]; XTT assay, 48 h, SD 10%, mean of three experiments, read-out: IC50 33 (HNSCC)) was 4 µM, the “Selectivity index CAL33” value ([3]; SI = IC50 in normal cells (15S)/IC50 in CAL33) was 3.13 and the IC50 ([4]; CXCR1+/CXCR2+) was 2000 nM. For the same compound, the “proliferation of primary kidney tumor cells CC” value ([4]; Figure S8A-B) was “significantly decreased”, the “Selectivity index CC” value ([4]; SI = IC50 in normal cells (15S)/IC50 in CC) was 6.25 and the “efficacy on tumor growth, 786-O xenograft” value [5] was “as efficient as a dose of 50 mg/kg administered by oral gavage”. The IC50 [6] was 5 µM, the IC50 [7] was 4 µM and the “ERK/MAP Kinase and PI3K/AKT signaling pathways (p-ERK, p-AKT)” value [8] was “inhibited”. The IC50 [9] was 5 µM, the “basal and CXCL5/CXCL7-dependent HuVECs viability” value [10] was “inhibited” and the IC50 [11] was < 20 µM. The “apoptotic markers in TF and CC cells” value [12] was “detected apoptotic markers”, the IC50 [13] was 7 µM and the “cell death (annexin-V/PI)” value [14] was “induced cell death”. The IC50 [15] was 2500 nM, the “hematological, renal or hepatic toxicity” value ([16]; 100mg/kg by oral gavage five times a week for three weeks) was “did not induce hematological, renal or hepatic toxicity” and the Basophils [16, 20] was 0.07089 ± 0.02 k/µl. It also gave an Eosinophils [16, 20] of 0.1760 ± 0.04 k/µl, a Hematocrit [16, 20] of 26.22 ± 2.45% and a Hemoglobin [16, 20] of 14.67 ± 1.22 g/dL. The Leucocytes [16, 20] was 4.239 ± 0.60 k/µl, the Lymphocytes [16, 20] was 2.943 ± 0.38 k/µl and the “Mean Corpuscular Volume” value [16, 20] was 112.0 ± 1.054 fL. It also gave a Mean corpuscular hemoglobin [16, 20] of 31.46 ± 0.79 pg, a Mean platelet volume [16, 20] of 12.81 ± 0.08 fL and a Monocytes [16, 20] of 0.2664 ± 0.04 k/µl. The Neutrophils [16, 20] was 0.6760 ± 0.11 k/µl, the Platelets [16, 20] was 375.7 ± 77.93 k/µl and the Red blood cells [16, 20] was 10.33 ± 0.98 M/µl. For the same compound, the “caspase 3 activity” value [17] was “increase”, the “proliferation/survival of uveal melanoma cells (Mel202)” value ([18]; 2.5 µmol/L) was “did not affect” and the IC50 ([18]; Mel202, CXCR1-/CXCR2-) was 10 µM. The “Selectivity index Mel202” value ([18]; SI = IC50 in normal cells (15S)/IC50 in Mel202) was 1.25, the IC50 ([19]; CXCR1+/CXCR2+) was 3.2 µM and the “proliferation of primary kidney tumor cells TF” value ([19]; Figure S8A-B) was “significantly decreased”. For the same compound, the “Selectivity index TF” value ([19]; SI = IC50 in normal cells (15S)/IC50 in TF) was 3.91.
